In patent US4395274A, “Microbicidal agent and its use” (Bayer Aktiengesellschaft, priority 1979, dated 1983):
Like-named read-outs stand apart in the source and are kept apart here.

What was measured:
[1] = as a formaldehyde depot substance; cited from earlier work
[2] = tested on: Alternaria tenuis; assay: minimum inhibitory concentration (MIC) in agar culture media; synergism by Kull et al; type: cell-based; settings: for X (synergism index by Kull et al): X=1 additivity, X>1 antagonism, X<1 synergism
Experimental: (§1) The MIC values of A and B are compared with the MIC values of mixtures A/B.
(§2) The synergism is determined according to the method described by Kull et al (F. C. Kull, P. C. Eismann, H. D. Sylvestrowicz, R. L. Mayer, Applied Microbiol. 9, 538 to 541, 1961). The following symbols apply here: [formula] X=1 denotes additivity X>1 denotes antagonism
(§3) Qa =concentration of compound A, which represents the MIC
(§4) Qb =concentration of compound B, which represents the MIC
(§5) QA =the amount of compound A in the concentration of A/B, which prevents the growth of microbes
(§6) QB =the amount of compound B in the concentration of A/B which prevents the growth of microbes.

[3] = tested on: Aspergillus niger; assay: as above; type: cell-based; settings: for X (synergism index by Kull et al): X=1 additivity, X>1 antagonism, X<1 synergism
Experimental: as §1, §2, §3, §4, §5, §6

[4] = tested on: Chaetomium globosum; assay: as above; type: cell-based; settings: for X (synergism index by Kull et al): X=1 additivity, X>1 antagonism, X<1 synergism
Experimental: as §1, §2, §3, §4, §5, §6

[5] = tested on: Coniophora cerebella; assay: as above; type: cell-based; settings: for X (synergism index by Kull et al): X=1 additivity, X>1 antagonism, X<1 synergism
Experimental: as §1, §2, §3, §4, §5, §6

[6] = tested on: Pullularia pullulans; assay: as above; type: cell-based; settings: for X (synergism index by Kull et al): X=1 additivity, X>1 antagonism, X<1 synergism
Experimental: as §1, §2, §3, §4, §5, §6

[7] = tested on: Trichoderma viride; assay: as above; type: cell-based; settings: for X (synergism index by Kull et al): X=1 additivity, X>1 antagonism, X<1 synergism
Experimental: as §1, §2, §3, §4, §5, §6

[8] = tested on: Chaetomium globosum Kunze and Aspergillus niger; assay: mould resistance of soap-wrapping paper; settings: 0.5% by weight of paper added to pulp
Experimental: (§7) Based on the weight of the paper (90 to 100 g/m^2) 0.5% of A/B=6/1 is homogeneously mixed under a pulp (density 1%, pH value 4.8) having the following composition:
The mould resistance and the antimicrobial activity of the soap-wrapping paper obtained in this manner is tested in the following way:
Circular paper test specimens (diameter 4 cm) are placed in a nutrient medium in Petri dishes, the medium having previously been infested with the test fungi Chaetomium globosum Kunze and Aspergillus niger.

[9] = tested on: fungus; assay: paper production: pulp feeding system, losses of active compound, effluent and discharged air; settings: 0.5% by weight of paper added to the pulp
Experimental: as §7
If, however, as is customary, owing to the lack up until now of usable alternatives, 0.5% of sodium pentachlorophenolate (related to the weight of the paper) is added to the pulp, losses of active compound amounting to more than 50% occur (approx. 25% are found in the effluent and approx. 25% in the outgoing air).

[10] = tested on: rats; settings: comparison compound; cited from earlier work
[11] = A differs between Example 1 and Example 6

Structure (SMILES)	X (synergism index by Kull et al) [2]	MIC ([2]; agar culture media) [µg/mL]	QA (amount of compound A in the concentration of A/B which prevents the growth of microbes) [3, 11]	X (synergism index by Kull et al) [3]	MIC ([3]; agar culture media)	QA (amount of compound A in the concentration of A/B which prevents the growth of microbes) [4, 11]	X (synergism index by Kull et al) [4]	MIC ([4]; agar culture media)	QA (amount of compound A in the concentration of A/B which prevents the growth of microbes) [5, 11]	X (synergism index by Kull et al) [5]	MIC ([5]; agar culture media) [µg/mL]	QA (amount of compound A in the concentration of A/B which prevents the growth of microbes) [6, 11]	X (synergism index by Kull et al) [6]	MIC ([6]; agar culture media)	QA (amount of compound A in the concentration of A/B which prevents the growth of microbes) [7, 11]	X (synergism index by Kull et al) [7]	MIC ([7]; agar culture media)	further results
CN1CSC(=S)N(C)C1 [3,5-dimethyl-tetrahydro-1,3,5-thiadiazine-2-thione]																		stability [1]: only moderately stable
Oc1ccc(Cl)cc1Cc1cc(Cl)ccc1O [A/B 100/0 (Example 1), (2,2'-dihydroxy-5,5'-dichloro)-diphenyl-methane]	1	20	20	1	20 µg/mL	50	1	50 µg/mL	10	1	10	20	1	20 µg/mL	50	1	50 µg/mL	QA (amount of compound A in the concentration of A/B which prevents the growth of microbes) [2]: 20; MIC ([2]; Alternaria alternata, read-out: Qa (concentration of compound A, which represents the MIC)): 20 µg/mL; MIC ([3]; Aspergillus niger, A differs between Example 1 and Example 6, read-out: Qa (concentration of compound A, which represents the MIC)): 20 µg/mL; MIC ([4]; Chaetomium globosum, A differs between Example 1 and Example 6, read-out: Qa (concentration of compound A, which represents the MIC)): 50 µg/mL; MIC ([5]; Coniophora cerebella, A differs between Example 1 and Example 6, read-out: Qa (concentration of compound A, which represents the MIC)): 10 µg/mL; MIC ([6]; A differs between Example 1 and Example 6, read-out: Qa (concentration of compound A, which represents the MIC)): 20 µg/mL; MIC ([7]; Trichoderma viride, A differs between Example 1 and Example 6, read-out: Qa (concentration of compound A, which represents the MIC)): 50 µg/mL
Oc1ccccc1-c1ccccc1 [A/B 100/0 (Example 6), 2-hydroxy-diphenyl]			50	1	50 µg/mL	50	1	50 µg/mL	50	1	50	50	1	50 µg/mL	75	1	75 µg/mL	MIC ([3]; Aspergillus niger, read-out: Qa (concentration of compound A, which represents the MIC)): 50 µg/mL; MIC ([4]; Chaetomium globosum, read-out: Qa (concentration of compound A, which represents the MIC)): 50 µg/mL; MIC ([5]; Coniophora cerebella, read-out: Qa (concentration of compound A, which represents the MIC)): 50 µg/mL; MIC ([6]; read-out: Qa (concentration of compound A, which represents the MIC)): 50 µg/mL; MIC ([7]; Trichoderma viride, read-out: Qa (concentration of compound A, which represents the MIC)): 75 µg/mL
COC(=O)Nc1nc2ccccc2[nH]1 [B, benzimidazolyl-methyl-carbamate]	1	5000		1	2,5 mg/l		1	0,4 mg/l		1	2000		1	0,25 mg/l		1	2,5 mg/l	QB (amount of compound B in the concentration of A/B which prevents the growth of microbes) [2]: 5000; MIC ([2]; Alternaria alternata, read-out: Qb (concentration of compound B, which represents the MIC)): 5000 µg/mL; QB (amount of compound B in the concentration of A/B which prevents the growth of microbes) [3]: 2,5; MIC ([3]; Aspergillus niger, read-out: Qb (concentration of compound B, which represents the MIC)): 2.5 µg/mL; QB (amount of compound B in the concentration of A/B which prevents the growth of microbes) [4]: 0,4; MIC ([4]; Chaetomium globosum, read-out: Qb (concentration of compound B, which represents the MIC)): 0.4 µg/mL; QB (amount of compound B in the concentration of A/B which prevents the growth of microbes) [5]: 2000; MIC ([5]; Coniophora cerebella, read-out: Qb (concentration of compound B, which represents the MIC)): 2000 µg/mL; QB (amount of compound B in the concentration of A/B which prevents the growth of microbes) [6]: 0,25; MIC ([6]; read-out: Qb (concentration of compound B, which represents the MIC)): 0.25 µg/mL; QB (amount of compound B in the concentration of A/B which prevents the growth of microbes) [7]: 2,5; MIC ([7]; Trichoderma viride, read-out: Qb (concentration of compound B, which represents the MIC)): 2.5 µg/mL
[Na+].[O-]c1c(Cl)c(Cl)c(Cl)c(Cl)c1Cl [sodium pentachlorophenolate]																		mould-resistance of paper [8]: poor mould-resistance; discharged air problems [9]: disagreable odours, mucosal irritation; effluent toxicity [9]: the effluent is toxic to fish; LD50 oral [10]: 270 mg/kg
